In US10670605B2, “Cysteine reactive probes and uses thereof” (The Scripps Research Institute, priority 2015, dated 2020):

How the values were obtained:
Experiment in all cases: Competitive isoTOP-ABPP, cell lysates
Assay type in all cases: binding
UBE2O C375 (Q9C0C9) = target: T1, UBE2O C375 (Q9C0C9) (Homo sapiens, UniProt Q9C0C9)
T1 sequence (Q9C0C9 1-1292): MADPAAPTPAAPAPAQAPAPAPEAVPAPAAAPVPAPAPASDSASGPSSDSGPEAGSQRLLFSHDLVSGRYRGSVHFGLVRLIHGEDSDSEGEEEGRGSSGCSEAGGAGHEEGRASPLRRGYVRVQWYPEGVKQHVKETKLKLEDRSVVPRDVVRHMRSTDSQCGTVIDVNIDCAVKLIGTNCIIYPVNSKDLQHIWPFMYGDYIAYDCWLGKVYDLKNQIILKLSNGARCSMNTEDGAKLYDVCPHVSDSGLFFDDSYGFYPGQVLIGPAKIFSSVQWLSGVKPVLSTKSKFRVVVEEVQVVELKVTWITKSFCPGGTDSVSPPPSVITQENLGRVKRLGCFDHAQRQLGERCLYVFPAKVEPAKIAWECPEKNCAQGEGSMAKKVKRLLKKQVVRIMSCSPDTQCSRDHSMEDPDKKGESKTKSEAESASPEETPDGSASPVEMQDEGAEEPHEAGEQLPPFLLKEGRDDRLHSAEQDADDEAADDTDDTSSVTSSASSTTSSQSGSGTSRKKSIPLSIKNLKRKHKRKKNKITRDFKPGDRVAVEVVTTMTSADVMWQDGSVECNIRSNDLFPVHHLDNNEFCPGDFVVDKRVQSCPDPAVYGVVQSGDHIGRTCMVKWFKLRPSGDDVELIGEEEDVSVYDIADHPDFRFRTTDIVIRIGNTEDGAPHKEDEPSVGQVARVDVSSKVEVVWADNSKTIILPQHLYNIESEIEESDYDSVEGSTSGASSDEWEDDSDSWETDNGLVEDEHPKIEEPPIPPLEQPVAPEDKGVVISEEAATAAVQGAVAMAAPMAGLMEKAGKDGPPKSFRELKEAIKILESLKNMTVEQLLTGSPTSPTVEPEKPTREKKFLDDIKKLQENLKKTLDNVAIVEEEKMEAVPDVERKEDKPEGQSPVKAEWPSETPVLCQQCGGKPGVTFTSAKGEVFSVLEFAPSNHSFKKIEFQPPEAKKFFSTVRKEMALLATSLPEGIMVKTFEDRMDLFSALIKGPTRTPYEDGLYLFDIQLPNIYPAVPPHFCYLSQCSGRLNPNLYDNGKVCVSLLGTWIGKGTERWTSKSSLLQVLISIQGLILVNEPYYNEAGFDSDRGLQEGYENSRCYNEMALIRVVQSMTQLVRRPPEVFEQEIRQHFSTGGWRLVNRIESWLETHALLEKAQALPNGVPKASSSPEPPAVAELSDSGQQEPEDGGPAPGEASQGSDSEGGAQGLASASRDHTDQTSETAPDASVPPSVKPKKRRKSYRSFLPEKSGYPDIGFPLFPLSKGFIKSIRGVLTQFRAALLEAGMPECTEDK

PELI1 C282 (Q96FA3) = target: T2, PELI1 C282 (Q96FA3) (Homo sapiens, UniProt Q96FA3); settings: for isoTOP-ABPP ratio (reactivity profile), Q96FA3_C282: 500 μm in-vitro ramos; for isoTOP-ABPP reactivity ratio, Q96FA3_C282 / isoTOP-ABPP reactivity profile ratio, Q96FA3_C282: 500 μm, in-vitro_ramos
T2 sequence (Q96FA3 1-418): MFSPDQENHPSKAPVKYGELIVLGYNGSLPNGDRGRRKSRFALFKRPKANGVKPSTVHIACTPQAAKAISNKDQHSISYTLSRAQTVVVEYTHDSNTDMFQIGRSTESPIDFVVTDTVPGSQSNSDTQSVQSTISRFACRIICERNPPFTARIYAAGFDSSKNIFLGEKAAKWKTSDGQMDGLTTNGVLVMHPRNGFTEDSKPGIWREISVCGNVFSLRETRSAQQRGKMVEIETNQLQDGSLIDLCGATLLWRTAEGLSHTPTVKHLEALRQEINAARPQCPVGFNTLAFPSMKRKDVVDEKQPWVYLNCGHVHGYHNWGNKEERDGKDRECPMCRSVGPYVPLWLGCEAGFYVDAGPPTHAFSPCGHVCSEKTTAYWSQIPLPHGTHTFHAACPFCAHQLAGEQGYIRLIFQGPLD

PES1 C272 (O00541) = PES1 C272 (O00541) (Homo sapiens, UniProt O00541); settings: 500 μM, invitro
Sequence of PES1 C272 (O00541) (O00541 whole entry, looked up): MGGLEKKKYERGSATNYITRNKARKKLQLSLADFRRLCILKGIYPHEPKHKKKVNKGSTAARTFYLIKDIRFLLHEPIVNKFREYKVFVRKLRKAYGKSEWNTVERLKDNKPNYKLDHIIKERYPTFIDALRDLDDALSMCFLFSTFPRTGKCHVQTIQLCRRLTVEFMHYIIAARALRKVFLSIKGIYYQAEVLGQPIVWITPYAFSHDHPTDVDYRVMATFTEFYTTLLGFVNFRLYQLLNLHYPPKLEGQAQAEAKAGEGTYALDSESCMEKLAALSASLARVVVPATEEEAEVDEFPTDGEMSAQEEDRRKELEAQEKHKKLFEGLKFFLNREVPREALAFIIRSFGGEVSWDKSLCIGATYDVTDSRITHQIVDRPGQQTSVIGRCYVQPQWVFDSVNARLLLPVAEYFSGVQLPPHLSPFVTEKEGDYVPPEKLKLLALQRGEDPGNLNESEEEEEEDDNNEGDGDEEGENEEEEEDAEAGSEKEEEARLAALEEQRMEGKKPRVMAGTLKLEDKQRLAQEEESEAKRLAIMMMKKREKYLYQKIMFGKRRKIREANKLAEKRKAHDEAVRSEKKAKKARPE

For CC(C)CCOCCNC(=O)CCl [compound 27], the “isoTOP-ABPP ratio (reactivity profile), Q9C0C9_C375” value (UBE2O C375 (Q9C0C9); 500 μm in-vitro ramos_231) was 0.7.
With O=C(/C=C/c1ccccc1)Nc1cc(C(F)(F)F)cc(C(F)(F)F)c1 [compound 26] the “isoTOP-ABPP ratio (reactivity profile), Q96FA3_C282” value (PELI1 C282 (Q96FA3)) was 0.5.
O=C(CCl)Nc1cccc2ncccc12 [compound 51] was tested, and the “isoTOP-ABPP reactivity profile ratio, Q9C0C9_C375” value (UBE2O C375 (Q9C0C9); 500 μm, in-vitro_ramos) was 0.8.
For COc1ccccc1OCCNC(=O)CCl [compound 28], the “isoTOP-ABPP ratio (reactivity profile), Q96FA3_C282” value (PELI1 C282 (Q96FA3)) was 0.7.
O=C(CCl)N1CCN(S(=O)(=O)c2ccccc2F)CC1 [compound 10] was tested, and the “isoTOP-ABPP ratio, Q9C0C9_C375” value (UBE2O C375 (Q9C0C9); 500 μM, invitro, ramos) was 0.8 and the “isoTOP-ABPP ratio, O00541_C272” value (PES1 C272 (O00541); ramos) was 2.2.
C=CC(=O)N(c1ccccc1)c1ccc(Br)cc1 [compound 5] was tested, and the “isoTOP-ABPP ratio, O00541_C272” value (PES1 C272 (O00541); ramos) was 12.3.
For O=C(CCl)Nc1cc(C(F)(F)F)cc(C(F)(F)F)c1 [compound 3], the “R value (DMSO/fragment)” value (UBE2O C375 (Q9C0C9); 500 μM, in vitro, MDA-MB-231) was 9.8 and the “R value (DMSO/fragment)” value (UBE2O C375 (Q9C0C9); 500 μM, invitro, ramos) was 4.1.
For N#C/C(=C\c1cc(C(F)(F)F)cc(C(F)(F)F)c1)C(N)=O [compound 23], the “isoTOP-ABPP ratio (reactivity profile), Q9C0C9_C375” value (UBE2O C375 (Q9C0C9); 500 μm in-vitro ramos) was 1.4.
With C=CC(=O)Nc1cc(F)c(N2CCN(C(=O)OC(C)(C)C)CC2)c(F)c1 [compound 38] the “isoTOP-ABPP reactivity ratio, Q96FA3_C282” value (PELI1 C282 (Q96FA3)) was 7.0.
With Cn1cc(S(=O)(=O)N2CCOCC2)cc1C(=O)NC(=O)CCl [compound 11] the “isoTOP-ABPP ratio, O00541_C272” value (PES1 C272 (O00541); ramos) was 4.2.
For O=C(CCl)NCCc1c[nH]c2ccccc12 [compound 13], the “isoTOP-ABPP ratio, O00541_C272” value (PES1 C272 (O00541); 231) was 1.7.
O=C(CCl)NC12CC3CC(CC(C3)C1)C2 [compound 21] was tested, and the “isoTOP-ABPP ratio (reactivity profile), Q9C0C9_C375” value (UBE2O C375 (Q9C0C9); 500 μm in-vitro ramos) was 2.4.
N#CC(=Cc1ccc(-c2ccccc2Cl)o1)C(N)=O [compound 42] was tested, and the “isoTOP-ABPP reactivity profile ratio, Q96FA3_C282” value (PELI1 C282 (Q96FA3)) was 1.2.
O=C(CCl)Nc1ccc(-c2ccccc2)cc1 [compound 52] was tested, and the “isoTOP-ABPP reactivity profile ratio, Q96FA3_C282” value (PELI1 C282 (Q96FA3)) was 20.0.
For CCN(CC)c1ccc(S(N)(=O)=O)cc1NC(=O)CCl [compound 30], the “isoTOP-ABPP reactivity ratio, Q96FA3_C282” value (PELI1 C282 (Q96FA3)) was 1.5.
